# In patent US20260265248A1, “NOVEL PD-L1 INHIBITORS” (AFFIRMA BIOTECH S. L., priority 2023, published 2026):
# Target: T1, PD-1/PD-L1 (Homo sapiens, UniProt Q9NZQ7)
# T1 construct: purchased CisBio
# Assay: PD1-PDL1 HTRF assay
# Conditions: PD-1/PD-L1 homogenous time-resolved fluorescence (HTRF) binding assay; Tag1-PDL1 5 nM, Tag2-PD1 50 nM
# Text: The CisBio HTRF assay kit, purchased from CisBio only, was employed to determine the IC50 values of compounds. The PD1-PDL1 HTRF assay measures the interactions between the two proteins, PD1 and PDL1. The interaction is detected by using anti-Tag1 labeled with Europium (HTRF donor) which binds to PDL1 and anti-Tag2 labeled with XL665 (HTRF acceptor) which binds to PD1. When the two antibodies are in proximity, the excitation of the donor fluorophore results in FRET emission from the acceptor fluorophore. The presence of inhibitors for such an interaction result in reduction of HTRF signal.
# The assay was conducted in 96-well white assay plates. All the reagents, including Tag1-PDL1, Tag2-PD1, Anti-Tag1-PDL1, Anti-Tag2-PD1 were thawed and diluted with PPI Europium Detection buffer to achieve the desired concentration as per the manufacturer's protocol. A 1000 μM stock solution of test inhibitors was prepared in DMSO. The stock solution was diluted in DMSO to prepare 8 concentrations (1000-0.001 μM). These stock solutions were further diluted in PPI Europium detection buffer to prepare 8 working stock solutions (100-0.0001 μM). To the 96-well plate, 2 μL of the test inhibitor working stock solutions were added followed by 4 μL of Tag1-PDL1 (5 nM) and 4 μL of Tag2-PD1 (50 nM). The plate was incubated at room temperature for 15 min. Subsequently, 10 μL of pre-mixed Anti-Tag1-PDL1 and Anti-Tag2-PD1 solution was added. The plate was sealed and incubated at room temperature for 1 h. The HTRF signal was read on Perkin Elmer Envision plate reader using excitation wavelength of 320 nm, emission wavelengths of 620 nm and 665 nm. Results were obtained by calculating the ratio of signal from acceptor at 665 nm to that of signal from donor at 620 nm multiplied by […]. The IC50 values were determined by the Hill equation using GraphPad Prism software.
# T1 sequence (Q9NZQ7 19-238 limits assumed): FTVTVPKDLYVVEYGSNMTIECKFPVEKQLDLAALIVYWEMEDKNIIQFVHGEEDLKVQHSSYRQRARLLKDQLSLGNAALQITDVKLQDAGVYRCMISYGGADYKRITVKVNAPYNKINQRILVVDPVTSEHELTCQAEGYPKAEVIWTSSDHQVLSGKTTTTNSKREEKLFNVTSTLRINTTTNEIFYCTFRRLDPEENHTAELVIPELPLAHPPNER
row,SMILES,IC50
1,"Cc1c(-c2ccc3c(c2)OCCO3)cccc1-c1ccn2c(-c3ccc(CNC[C@@H](O)CO)cc3)cnc2c1 [Example 31, (R)-3-((4-(7-(3-(2,3-dihydrobenzo[b][1,4]dioxin-6-yl)-2-methylphenyl)imidazo[1,2-a]pyridin-3-yl)benzyl)amino)propane-1,2-diol]",100 to 1000 nM
2,"Cc1c(-c2ccc3c(c2)OCCO3)cccc1-c1ccn2c(-c3ccc(CN4CCCCC4C(=O)O)cc3)cnc2c1 (stereo not drawn) [Example 36, 1-(4-(7-(3-(2,3-dihydrobenzo[b][1,4]dioxin-6-yl)-2-methylphenyl)imidazo[1,2-a]pyridin-3-yl)benzyl)piperidine-2-carboxylic acid]",100 to 1000 nM
3,"Cc1c(-c2ccc3c(c2)OCCO3)cccc1-c1ccn2c(-c3ccc(CN4CCC[C@H]4C(=O)O)cc3)cnc2c1 [Example 37, (4-(7-(3-(2,3-dihydrobenzo[b][1,4]dioxin-6-yl)-2-methylphenyl)imidazo[1,2-a]pyridin-3-yl)benzyl)proline]",100 to 1000 nM
4,"Cc1c(-c2ccc3c(c2)OCCO3)cccc1-c1ccn2c(-c3ccc(CN4C[C@@H](C(=O)O)C[C@H]4O)cc3)cnc2c1 [Example 38, (3S,5R)-1-(4-(7-(3-(2,3-dihydrobenzo[b][1,4]dioxin-6-yl)-2-methylphenyl)imidazo[1,2-a]pyridin-3-yl)benzyl)-5-hydroxypyrrolidine-3-carboxylic acid]",100 to 1000 nM
5,"Cc1c(-c2ccc3c(c2)OCCO3)cccc1-c1ccn2c(-c3ccc(C(=O)NCC(=O)O)cc3)cnc2c1 [Example 41, (4-(7-(3-(2,3-dihydrobenzo[b][1,4]dioxin-6-yl)-2-methylphenyl)imidazo[1,2-a]pyridin-3-yl)benzoyl)glycine]",100 to 1000 nM
6,"Cc1c(-c2ccc3c(c2)OCCO3)cccc1-c1ccn2c(-c3ccc(C(=O)N4CCC[C@@H]4C(=O)O)cc3)cnc2c1 [Example 42, (4-(7-(3-(2,3-dihydrobenzo[b][1,4]dioxin-6-yl)-2-methylphenyl)imidazo[1,2-a]pyridin-3-yl)benzoyl)-D-proline]",100 to 1000 nM
7,"Cc1c(-c2ccc3c(c2)OCCO3)cccc1-c1ccn2c(-c3ccc(C(=O)N4CCC[C@H]4C(=O)O)cc3)cnc2c1 [Example 43, (4-(7-(3-(2,3-dihydrobenzo[b][1,4]dioxin-6-yl)-2-methylphenyl)imidazo[1,2-a]pyridin-3-yl)benzoyl)-L-proline]",100 to 1000 nM
8,"CC(=O)NCCNC(=O)c1ccn(-c2cnc3cc(-c4cccc(-c5ccccc5)c4C)ccn23)n1 [Example 46, N-(2-acetamidoethyl)-1-(7-(2-methyl-[1,1′-biphenyl]-3-yl)imidazo[1,2-a]pyridin-3-yl)-1H-pyrazole-3-carboxamide]",100 to 1000 nM
9,"Cc1c(-c2ccccc2)cccc1-c1ccn2c(-n3ccc(C(=O)NCCC(=O)O)n3)cnc2c1 [Example 47, N 3-(1-(7-(2-methyl-[1,1′-biphenyl]-3-yl)imidazo[1,2-a]pyridin-3-yl)-1H-pyrazole-3-carboxamido)propanoic acid]",100 to 1000 nM
10,"Cc1c(-c2ccc3c(c2)OCCO3)cccc1-c1ccn2c(-n3ccc(C(=O)NCC(=O)O)n3)cnc2c1 [Example 48, (1-(7-(3-(2,3-dihydrobenzo[b][1,4]dioxin-6-yl)-2-methylphenyl)imidazo[1,2-a]pyridin-3-yl)-1H-pyrazole-3-carbonyl)glycine]",10 to 100 nM
11,"Cc1c(-c2ccc3c(c2)OCCO3)cccc1-c1ccn2c(-n3ccc(C(=O)NCC(=O)O)n3)nnc2c1 [Example 49, (1-(7-(3-(2,3-dihydrobenzo[b][1,4]dioxin-6-yl)-2-methylphenyl)-[1,2,4]triazolo[4,3-a]pyridin-3-yl)-1H-pyrazole-3-carbonyl)glycine]",10 to 100 nM
12,"Cc1c(-c2ccccc2)cccc1-c1ccn2c(-c3ccc(CN4CCCCC4C(=O)O)cc3)nnc2c1 (stereo not drawn) [Example 52, 1-(4-(7-(2-methyl-[1,1′-biphenyl]-3-yl)-[1,2,4]triazolo[4,3-a]pyridin-3-yl)benzyl)piperidine-2-carboxylic acid]",100 to 1000 nM
13,"Cc1c(-c2ccccc2)cccc1-c1ccn2c(-c3ccc(CNCCO)cc3)nnc2c1 [Example 54, 2-((4-(7-(2-methyl-[1,1′-biphenyl]-3-yl)-[1,2,4]triazolo[4,3-a]pyridin-3-yl)benzyl)amino)ethan-1-ol]",100 to 1000 nM
14,"Cc1c(-c2ccccc2)cccc1-c1ccn2c(-c3ccc(CNCC(O)CC(=O)O)cc3)nnc2c1 (stereo not drawn) [Example 55, 3-hydroxy-4-((4-(7-(2-methyl-[1,1′-biphenyl]-3-yl)-[1,2,4]triazolo[4,3-a]pyridin-3-yl)benzyl)amino)butanoic acid]",100 to 1000 nM
15,"Cc1c(-c2ccc3c(c2)OCCO3)cccc1-c1ccn2c(-c3ccc(CN4CCC[C@@H]4C(=O)O)cc3)nnc2c1 [Example 56, (4-(7-(3-(2,3-dihydrobenzo[b][1,4]dioxin-6-yl)-2-methylphenyl)-[1,2,4]triazolo[4,3-a]pyridin-3-yl)benzyl)-D-proline]",10 to 100 nM
16,"Cc1c(-c2ccccc2)cccc1-c1ccn2c(-c3ccc(CN4CCC[C@@H]4C(=O)O)cc3)nnc2c1 [Example 58, (4-(7-(2-methyl-[1,1′-biphenyl]-3-yl)-[1,2,4]triazolo[4,3-a]pyridin-3-yl)benzyl)-D-proline]",10 to 100 nM
17,"Cc1c(-c2ccc3c(c2)OCCO3)cccc1-c1ccn2c(-c3ccc(CN4C[C@H](O)C[C@H]4C(=O)O)cc3)nnc2c1 [Example 60, (25,4R)-1-(4-(7-(3-(2,3-dihydrobenzo[b][1,4]dioxin-6-yl)-2-methylphenyl)-[1,2,4]triazolo[4,3-a]pyridin-3-yl)benzyl)-4-hydroxypyrrolidine-2-carboxylic acid]",100 to 1000 nM

# Other lines, results leading:
row,IC50,SMILES
1,100 to 1000 nM,"Cc1c(-c2ccc3c(c2)OCCO3)cccc1-c1ccn2c(-c3ccc(CN4CC[C@@H]4C(=O)O)cc3)cnc2c1 [Example 29, (R)-1-(4-(7-(3-(2,3-dihydrobenzo[b][1,4]dioxin-6-yl)-2-methylphenyl)imidazo[1,2-a]pyridin-3-yl)benzyl)azetidine-2-carboxylic acid]"
2,100 to 1000 nM,"Cc1c(-c2ccc3c(c2)OCCO3)cccc1-c1ccn2c(-c3ccc(CNCC(O)CC(=O)O)cc3)cnc2c1 (stereo not drawn) [Example 30, 4-((4-(7-(3-(2,3-dihydrobenzo[b][1,4]dioxin-6-yl)-2-methylphenyl)imidazo[1,2-a]pyridin-3-yl)benzyl)amino)-3-hydroxybutanoic acid]"
3,100 to 1000 nM,"Cc1c(-c2ccc3c(c2)OCCO3)cccc1-c1ccn2c(-c3ccc(CNC[C@H](O)CO)cc3)cnc2c1 [Example 32, (S)-3-((4-(7-(3-(2,3-dihydrobenzo[b][1,4]dioxin-6-yl)-2-methylphenyl)imidazo[1,2-a]pyridin-3-yl)benzyl)amino)propane-1,2-diol]"
4,100 to 1000 nM,"COc1cc(-c2cnc3cc(-c4cccc(-c5ccc6c(c5)OCCO6)c4C)ccn23)cc(OC)c1CN1CCC[C@H]1C(=O)O [Example 40, (4-(7-(3-(2,3-dihydrobenzo[b][1,4]dioxin-6-yl)-2-methylphenyl)imidazo[1,2-a]pyridin-3-yl)-2,6-dimethoxybenzyl)-L-proline]"
5,100 to 1000 nM,"Cc1c(-c2ccccc2)cccc1-c1ccn2c(-n3ccc(C(=O)NCCO)n3)cnc2c1 [Example 44, N-(2-hydroxyethyl)-1-(7-(2-methyl-[1,1′-biphenyl]-3-yl)imidazo[1,2-a]pyridin-3-yl)-1H-pyrazole-3-carboxamide]"
6,100 to 1000 nM,"Cc1c(-c2ccccc2)cccc1-c1ccn2c(-n3ccc(C(=O)NCC(=O)O)n3)cnc2c1 [Example 45, (1-(7-(2-methyl-[1,1′-biphenyl]-3-yl)imidazo[1,2-a]pyridin-3-yl)-1H-pyrazole-3-carbonyl)glycine]"
7,100 to 1000 nM,"Cc1c(-c2ccccc2)cccc1-c1ccn2c(C#CCN3CCC[C@@H]3C(=O)O)cnc2c1 [Example 50, (3-(7-(2-methyl-[1,1′-biphenyl]-3-yl)imidazo[1,2-a]pyridin-3-yl)prop-2-yn-1-yl)-D-proline]"
8,100 to 1000 nM,"Cc1c(-c2ccccc2)cccc1-c1ccn2c(C#CCN3CCC[C@H]3C(=O)O)cnc2c1 [Example 51, (3-(7-(2-methyl-[1,1′-biphenyl]-3-yl)imidazo[1,2-a]pyridin-3-yl)prop-2-yn-1-yl)-L-proline]"
9,100 to 1000 nM,"Cc1c(-c2ccccc2)cccc1-c1ccn2c(-c3ccc(CN4CCC[C@H]4C(=O)O)cc3)nnc2c1 [Example 53, (4-(7-(2-methyl-[1,1′-biphenyl]-3-yl)-[1,2,4]triazolo [4,3-a]pyridin-3-yl)benzyl)proline]"
10,10 to 100 nM,"Cc1c(-c2ccc3c(c2)OCCO3)cccc1-c1ccn2c(-c3ccc(CN4CCC[C@H]4C(=O)O)cc3)nnc2c1 [Example 57, (4-(7-(3-(2,3-dihydrobenzo[b][1,4]dioxin-6-yl)-2-methylphenyl)-[1,2,4]triazolo[4,3-a]pyridin-3-yl)benzyl)-L-proline]"
